Data taken from patent EP0194571A1, “Heterocyclic disulfides, process for their preparation and pharmaceutical preparations containing them” (HOECHST AKTIENGESELLSCHAFT, priority 1985, dated 1986).

Columns and labels:
[1] = test system: Maus-Peritonealmakrophagen; experiment: Activation of mononuclear phagocytes: release of lysosomal hydrolases (exocytosis) by peritoneal macrophages from treated mice; format: in vivo, NMRI-Mäuse; conditions: for N-Ac-Glu: N-Acetyl-ß-D-Glucosaminidase in culture supernatant; for ß-Gal: ß-Galactosidase in culture supernatant; for ß-Glu: ß-Glucuronidase in culture supernatant
Protocol: Hier wurde der Einfluß der nach Ausführungsbeispiel 8 erhaltenen Prüfsubstanz auf die Stimulation von Peritonealmakrophagen bei 6- 8 Wochen alten NMRI-Mäusen untersucht. Mäuseweibchen erhielten auf parenteralem oder oralem Wege die Prüfsubstanz in einer Dosis von 25 mg/kg, 50 mg/kg, 100 mg/kg und 200 mg/kg. Der Kontrollgruppe wurde gepufferte Kochsalzlösung verabreicht. Drei Tage nach den Injektionen wurden die Mäuse getötet, und es wurden die Peritonealmakrophagen der Tiere auf ihren Aktivierungszustand hin untersucht. Als Maß der Makrophagenaktivierung wurde zum einen die Sekretion der lyosomalen Enzyme (ß-Galactosidase, ß-Glucuronidase, N-Acetyl-ß-D-Glucosaminidase) bestimmt. Auf der anderen Seite konnte in vergleichbaren Makrophagenkulturen die Pinozytose durch die Aufnahme von kolloidalem Gold (^19^8Au) - wie sie dem Fachmann bekannt ist - untersucht werden. Die Höhe des oxidativen Stoffwechsels bei Makrophagen gilt als ein weiteres Maß für ihren Aktivierungszustand. Gemessen wird diese Aktivität unter Zuhilfenahme des Biolumaten durch Bestimmung der Chemolumineszenz.
Zu diesem Zweck wurden entweder in Petrischalen von 30 mm Durchmesser 3 x 10^6 Makrophagen mit 1 ml TC 199-Kulturmedium oder aber 10^6 Makrophagen mit 100 µl in Rundbogen-Polyäthylen-Röhrchen (zur Bestimmung der Chemolumineszenz) bei 5 % G02 und 37°C kultiviert.
Nach einstündiger Bebrütung wurden die Kulturen gewaschen, um schwimmende Zellen zu entfernen. Die Chemolumineszenz (Röhrchenkultur) wurde dann direkt bestimmt, während die Petrischalen erneut 24 Stunden bei 37°C bebrütet wurden und danach die Enzym- und Pinozytoseaktivität in den Kulturen bestimmt wurde. Es wurden die nachstehenden Ergebnisse erzielt.
Aus der Tabelle 3 ist zu entnehmen, daß Makrophagen von Kontrollmäusen nur geringe Mengen an lysosomalen Enzymen (ß-Glucuronidase, ß-Galactosidase, N-Acetyl-ß-D-Glucosaminidase) in den Kulturüberstand abgeben. Mononukleare Phagozyten von Mäusen, die parenteral oder oral mit der Prüfsubstanz 72 Stunden behandelt wurde, sezernieren die o.a. sauren Hydrolasen (ß-Glu, ß-Gal, N-Ac-Glu) deutlich mehr und weisen damit eine Dosiswirkungskurve auf, die bei allen gemessenen Enzymen eine Überlegenheit gegenüber den Kontrollen erkennen läßt. Es ist ersichtlich, daß die Prüfsubstanz eine stimulierende Wirkung auf die Makrophagenaktivität besitzt und zur Erhöhung der Enzymfreisetzung beiträgt.
Wie im Experiment 2 beschrieben, wurden NMRI-Mäuse mit den erfindungsgemäßen Verbindungen behandelt.
Als Test zur Erfassung der Immunstimulation wurde die Funktion der Makrophagen (Chemolumineszenz und Enzymaktivität) überprüft.
Tabelle 8 zeigt die relative Wirksamkeit der Prüfsubstanzen bezogen auf die Verbindung aus Beispiel 8, deren maximale Aktivierung (Differenz zwischen Kontrolle und Stimulation) 100 % entspricht. Der Tabelle ist zu entnehmen, daß im Vergleich zu Makrophagen aus unbehandelten Tieren, diese Zellen auch durch alle Prüfsubstanzen in ihrer Chemolumineszenzreaktion stark stimuliert und in ihrem Gehalt an lysosomalen Enzymen deutlich erhöht waren.

[2] = test system: B16-Melanom; experiment: Tumour defence against B16 melanoma (lung metastases after removal of primary tumour), survival time; format: in vivo, C57B1/6 Mäusen; conditions: control 26 Tagen
Protocol: Bei weiblichen C57B1/6 Mäusen (10 Tiere/Gruppe) mit einem Gewicht von 18 - 20 g wurde mit 2 x 10^5 lebenden B16-Melanomzellen ein Primärtumorwachstum induziert. Nach Ausprägung einer bestimmten Tumorgröße (0.65 cm im Durchmesser) wurde der Primärtumor entfernt. Die unbehandelten Tiere starben dann an Metastasen in der Lunge. Nach der Tumorinduktion wurden die Tiere an den Tagen 3, 5, 7, 9, 11, und 13 nach Amputation des Primärtumors mit 50, 100 und 200 mg/kg der nach Beispiel 8 erhaltenen Prüfsubstanz intraperitoneal behandelt. Aus der Absterberate nach Amputation des Primärtumors durch die Entwicklung von Lungenmetastasen lassen sich entsprechend die mittleren ffberlebenszeiten berechnen. Danach sterben die Tiere der Kontrollgruppe zu 50 % nach 26 Tagen. Die mit der Prüfsubstanz behandelten Gruppen zeigten (vgl. Tabelle 10) mit den entsprechenden Dosierungen eine signifikante Erhöhung der mittleren Überlebenszeit auf 43, 40 und 35 Lage.

[3] = test system: Candida albicans; experiment: Therapeutic treatment of a chronic Candida albicans infection (germ counts in urine and kidneys, kidney necrosis); format: in vivo, Balb/c-Mäuse; conditions: Tag 30, 60 mg/kg i.p. Tag 3-10
Protocol: Bei der therapeutischen Behandlung einer chronischen Candida albicans Infektion wurden weibliche Balb/c-Mäuse (15/Gruppe) am Tag 0 intravenös mit Candida albicans (1 x 10^5 CFU/Maus) infiziert. Nach erfolgter Infektion wurden die Tiere an 8 aufeinanderfolgenden Tagen (Tag 3 - 10) mit jeweils 60 mg/kg der Prüfsubstanz (Verbindung nach Ausführungsbeispiel 8) intraperitoneal behandelt. Den Kontrolltieren wurde physiologische Kochsalzlösung injiziert. An den Tagen 8, 14 und 21 wurden den Tieren Urin entnommen und die Keimzahl bestimmt. Am Tag 30 wurden die Tiere getötet und die Keimzahl und die Nekrosenbildung der Nieren bestimmt. Die Tabelle 6 zeigt, daß die Prüfsubstanz bei therapeutischer Gabe deutlich alle Parameter der chronischen Candida albicans Infektion (Keimzahl in Urin und Nieren und Nekrosenbildung) reduziert und damit die Erkrankung therapeutisch beeinflußt. Während bei den Kontrolltieren sich zu einem hohen Prozentsatz Keime im Urin nachweisen lassen, wird bei den behandelten Tieren die Keimzahl signifikant erniedrigt.
Auch die Keimbesiedlung der Nieren wird durch die Therapie von 63 % auf 27 % reduziert, bei einer gleichzeitigen Verringerung der Nekrosenbildung von 87 % auf 10 %.

[4] = test system: zelluläre Immunantwort (DTH-Reaktion) gegen Schafserythrozyten; experiment: Delayed type hypersensitivity (DTH) reaction against sheep erythrocytes, foot swelling in mice; format: in vivo, NMRI-Mäuse; conditions: relative to maximal activation by compound of Beispiel 8 = 100 %; Dosis 100 mg/kg, 1 x i.p. Tag 0

With `Cc1nc(SSc2nc(C)c(CC(=O)O)s2)sc1CC(=O)O` [Beispiel 8, Bis-(5-Carboxymethyl-4-methyl-thiazol-2-yl)-disulfid] the N-Ac-Glu ([1]; 1 x 25 mg/kg i.p.) was 2786 mU/ml, the N-Ac-Glu ([1]; 1 x 25 mg/kg p.o.) was 1947 mU/ml and the N-Ac-Glu ([1]; 1 x 50 mg/kg i.p.) was 3315 mU/ml. For the same compound, the N-Ac-Glu ([1]; 1 x 50 mg/kg p.o.) was 2862 mU/ml, the N-Ac-Glu ([1]; 1 x 100 mg/kg i.p.) was 4305 mU/ml and the N-Ac-Glu ([1]; 1 x 100 mg/kg p.o.) was 3676 mU/ml. For the same compound, the N-Ac-Glu ([1]; 1 x 200 mg/kg i.p.) was 6548 mU/ml, the N-Ac-Glu ([1]; 1 x 200 mg/kg p.o.) was 5621 mU/ml and the “Makrophagenaktivität Exozytose” value ([1]; lysosomal enzyme activity, relative to maximal activation by compound of Beispiel 8 = 100 %, 100 mg/kg i.p.) was 100%. It also gave a ß-Gal ([1]; 1 x 25 mg/kg i.p.) of 2584 mU/ml, a ß-Gal ([1]; 1 x 25 mg/kg p.o.) of 4917 mU/ml and a ß-Gal ([1]; 1 x 50 mg/kg i.p.) of 11058 mU/ml. The ß-Gal ([1]; 1 x 50 mg/kg p.o.) was 9179 mU/ml, the ß-Gal ([1]; 1 x 100 mg/kg i.p.) was 17596 mU/ml and the ß-Gal ([1]; 1 x 100 mg/kg p.o.) was 13195 mU/ml. The ß-Gal ([1]; 1 x 200 mg/kg i.p.) was 22351 mU/ml, the ß-Gal ([1]; 1 x 200 mg/kg p.o.) was 17357 mU/ml and the ß-Glu ([1]; 1 x 25 mg/kg i.p.) was 1001 mU/ml. For the same compound, the ß-Glu ([1]; 1 x 25 mg/kg p.o.) was 897 mU/ml, the ß-Glu ([1]; 1 x 50 mg/kg i.p.) was 1370 mU/ml and the ß-Glu ([1]; 1 x 50 mg/kg p.o.) was 1133 mU/ml. It also gave a ß-Glu ([1]; 1 x 100 mg/kg i.p.) of 1791 mU/ml, a ß-Glu ([1]; 1 x 100 mg/kg p.o.) of 1593 mU/ml and a ß-Glu ([1]; 1 x 200 mg/kg i.p.) of 2136 mU/ml. For the same compound, the ß-Glu ([1]; 1 x 200 mg/kg p.o.) was 1886 mU/ml, the “mittlere Überlebenszeit” value ([2]; 50 mg/kg intraperitoneal on days 3, 5, 7, 9, 11, 13 after amputation of primary tumour) was 43 days and the “mittlere Überlebenszeit” value ([2]; 100 mg/kg intraperitoneal on days 3, 5, 7, 9, 11, 13 after amputation of primary tumour) was 40 days. The “mittlere Überlebenszeit” value ([2]; 200 mg/kg intraperitoneal on days 3, 5, 7, 9, 11, 13 after amputation of primary tumour) was 35 days, the “Keimbesiedlung der Nieren” value ([3]; control 63 %) was 27% and the Nekrosenbildung ([3]; kidneys, control 87 %) was 10%. For the same compound, the “DTH-Reaktion (SRBC)” value [4] was 100%.
